Test results taken from PMC5859971 (Genes & Development, 2018).
“Also recorded” adds a separate entry of the source.

Experiments:
[1] = biological target: T1, PHF5A^Y36C mutant complex (Homo sapiens, UniProt O75533+Q7RTV0, Y36C); test: MST compound binding to PHF5A^Y36C mutant complex; conditions: result in words
T1 construct: SF3B1 was limited to the HEAT repeat domain from residues 454–1304 and cloned in-frame with an N-terminal Flag tag; Truncated SF3B1 and full-length SF3B3, PHF5A, and SF3B5 were synthesized; Flag (N); made in house; host or cells: SF21 insect cells (inferred to be made as the wild-type complex)
Protocol: The four-protein complex composed of the HEAT repeats of SF3B1 (residues 454–1304) as well as full-length SF3B3, SF3B5, and PHF5A was coexpressed and purified from insect cells. This complex is necessary and sufficient for compound binding in a scintillation proximity assay (SPA) format ([Teng et al. 2017]).
The SF3b subcomplex was first titrated against a fixed concentration (25 nM) of fluorescent label (NTA-647) to determine the optimal concentrations of protein and label for the MST experiment. After 15 min of incubation at room temperature, samples were loaded into Monolith NT.115 capillaries, and MST analysis was performed using a Monolith NT.115Pico. […] For subsequent compound-binding experiments, the SF3b subcomplex bound to NTA-647 was fixed at 10 nM, and the compound was titrated from 50 µM to 3 pM. After 15 min of incubation, samples were loaded into capillaries, and analysis was performed as described previously.

HCT116-PHF5A^WT = test: CellTiter-Glo viability assay, HCT116-PHF5A^WT; type: cell-based, human; conditions: Homo sapiens; 72 h, CellTiter-Glo; read-out: HCT116-PHF5A^WT GI50
Protocol: To further validate the pose of the compound, we analyzed the activity of several related chemical probes using the SPA with the purified protein complex ([Teng et al. 2017]). The SPA is formatted as a competition assay in which the purified protein complex is captured on a bead containing scintillant, incubated with test compounds over a dose response, and then competed off with a fixed concentration of ^3H-Plad compound. IC50 curves are then measured from the resulting light emitted from the bead (Table 1; Supplemental Fig. S4). In addition, we tested the probes in viability assays in two engineered cell lines: HCT116-PHF5A^WT and the sensitization line HCT116-PHF5A^R38C (Table 1; Supplemental Fig. S5). This facilitates profiling of chemical probe activity in the PHF5A background (wild type and mutant). The relative expression levels were further confirmed by Western blot analysis (Supplemental Fig. S5).
Parental HCT116 cells were obtained from American Type Culture Collection and cultured in RPMI 1640 medium supplemented with 10% fetal bovine serum. PHF5A R38C was generated using the Agilent QuikChange II kit and was cloned into pLenti6.3/V5 as described ([Teng et al. 2017]). The verified clone was used for lentivirus production using X293T cells. Parental HCT116 cells were infected with virus and selected with blasticidin S at 10 µg mL^−1 for 1 wk. Engineered cell lines were subsequently maintained in the absence of antibiotic. Transgene expression was confirmed by Western blot analysis (Supplemental Fig. S4). For Western blot analysis, α-PHF5A rabbit polyclonal antibody (Protein Tech, 15554-1-AP) was used at 1:1000 dilution in LI-COR buffer, and anti-rabbit secondary antibody (LI-COR) was used at 1:5000 dilution. The Western blot was imaged using an Odyssey V3.0 imager (LI-COR). For CellTiter-Glo analysis of the wild-type and PHF5A^R38C cell lines, 500 cells were seeded in each well of a 384-well plate 1 d before compound addition. Dose response was measured in 11-point serial dilutions with a top dose of 10 µM. The percentage of DMSO was controlled throughout, and a DMSO-only control was included. Seventy-two hours after dosing, CellTiter-Glo reagent was added, incubated, and assayed on an EnVision multilabel reader (PerkinElmer). Luminescence values from each treatment were normalized to the average value of the respective DMSO control. The dose response curve plots were generated in GraphPad Prism, and GI50 values were calculated from nonlinear regression analysis. GI50 values for the wild-type and R38C mutant cell lines were plotted in Spotfire.

[2] = test system: splicing of Ad2.1 pre-mRNA substrate; test: In vitro splicing (IVS) assay, Ad2.1 substrate, HeLa S3 nuclear extracts, RT-qPCR; type: biochemical, human; conditions: Ad2.1 (strong) substrate
Excerpt: A substrate competitive mechanism of action (MOA) would predict that weaker pre-mRNA substrates would be easier to inhibit than stronger substrates. To date, it has not been possible to evaluate substrate competition using traditional steady-state conditions because splicing reactions are thought to be single-turnover events in vitro, and therefore it is not possible to measure a KM for the pre-mRNA. […] Specifically, we engineered the strong in vitro splicing substrate Ad2.1 by enhancing the U2 snRNP base-pairing around the BPA found in the Ad2 substrate. We then engineered a weaker substrate, Ad2.2, by adding a decoy BPS lacking an extrahelical adenosine (Ad2.2) (Fig. 5A; Supplemental Vector NTI files; [Corrionero et al. 2011]). […] We then evaluated E7107 and several chemical probes to better understand their mechanism.
Figure 5. […] (A) Base-pairing logic for IVS substrates. (BPRS) Branch point recognition sequence in U2 snRNA; (BPS) the BPS in the pre-mRNA. The Ad2 gene BPS sequence (UACUUAU) was modified (UACUAAU) to strengthen the U2 base-pairing interactions flanking the BPA, leading to the Ad2.1 substrate (BPA in red). The Ad2.2 sequence has the same BPS as Ad2 but also contains a 5′ decoy BPS sequence (lacking an extrahelical adenine) that can base-pair with the BPRS. The decoy BPS and suboptimal BPS overlap, which gives U2 at least two possibilities for possible base pairing, as indicated. […] (B) RT-qPCR time-course data showing product formation over time. […] (C) Representative IC50 curves for compound 6 using the two different substrates (Ad2.1 and Ad2.2).
The Ad2-derived ([Pellizzoni et al. 1998]) sequence was cloned into the pGEM-3Z vector (Promega) using 5′ EcoRI and 3′ XbaI restriction sites. The Ad2 variant (Ad2.2) ([Seiler et al. 2018]) was cloned into pcDNA3.1(+) vector (Promega) using the same restriction sites. The plasmids were linearized using XbaI and used as DNA templates in the in vitro transcription reactions. The FtzΔi intron-less plasmid ([Luo and Reed 1999]) was linearized using EcoRI. All RNAs were in vitro transcribed and then purified using MegaScript T7 and MegaClear kits, respectively (Invitrogen). For splicing reactions used with the Ad2.2 substrate, […] reactions were prepared using 8 µg of nuclear extracts prepared from HeLa S3, a saturating excess of 2 ng of pre-mRNA substrate, 0.2 ng of FTZΔi, and varying concentrations of compounds or DMSO.

[3] = test system: SF3B1^R1074H and PHF5A^Y36 mutations; conditions: strongest levels of resistance; ref Yokoi et al. 2011; Teng et al. 2017; cited from earlier work

T1 sequence (Q15393 whole entry, the tested form may be a part): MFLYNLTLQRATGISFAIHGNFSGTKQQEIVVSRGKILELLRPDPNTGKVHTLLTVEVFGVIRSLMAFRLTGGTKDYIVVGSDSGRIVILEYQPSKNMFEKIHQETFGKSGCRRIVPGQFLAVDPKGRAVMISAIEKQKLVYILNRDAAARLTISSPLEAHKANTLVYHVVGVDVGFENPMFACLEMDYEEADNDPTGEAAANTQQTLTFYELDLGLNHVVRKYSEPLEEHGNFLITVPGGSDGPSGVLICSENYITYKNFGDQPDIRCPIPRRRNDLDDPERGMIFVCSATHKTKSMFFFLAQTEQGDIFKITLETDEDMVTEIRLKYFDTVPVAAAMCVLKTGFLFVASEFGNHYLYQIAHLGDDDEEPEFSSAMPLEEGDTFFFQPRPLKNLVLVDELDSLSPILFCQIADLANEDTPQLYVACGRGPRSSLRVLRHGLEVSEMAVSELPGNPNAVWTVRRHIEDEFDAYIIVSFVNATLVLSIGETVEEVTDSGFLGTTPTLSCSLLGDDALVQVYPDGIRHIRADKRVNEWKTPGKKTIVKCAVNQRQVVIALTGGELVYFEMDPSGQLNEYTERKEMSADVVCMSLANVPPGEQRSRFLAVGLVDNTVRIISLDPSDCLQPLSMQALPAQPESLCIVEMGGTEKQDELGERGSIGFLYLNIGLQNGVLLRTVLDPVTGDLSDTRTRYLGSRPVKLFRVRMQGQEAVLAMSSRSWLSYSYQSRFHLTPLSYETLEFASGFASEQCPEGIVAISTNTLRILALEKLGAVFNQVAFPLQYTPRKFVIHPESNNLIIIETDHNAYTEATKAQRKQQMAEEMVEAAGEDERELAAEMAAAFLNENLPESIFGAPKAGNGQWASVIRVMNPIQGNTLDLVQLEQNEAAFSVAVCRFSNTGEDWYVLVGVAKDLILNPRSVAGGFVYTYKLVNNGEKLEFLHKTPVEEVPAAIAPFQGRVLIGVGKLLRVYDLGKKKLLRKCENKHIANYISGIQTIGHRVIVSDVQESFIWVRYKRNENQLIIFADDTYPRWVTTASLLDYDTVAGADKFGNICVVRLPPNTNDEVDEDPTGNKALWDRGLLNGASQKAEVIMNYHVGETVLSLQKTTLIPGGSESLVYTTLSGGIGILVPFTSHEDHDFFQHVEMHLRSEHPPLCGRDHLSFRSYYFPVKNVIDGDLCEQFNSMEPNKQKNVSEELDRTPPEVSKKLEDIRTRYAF
T1 sequence (Q9BWJ5 whole entry, further chain, the tested form may be a part): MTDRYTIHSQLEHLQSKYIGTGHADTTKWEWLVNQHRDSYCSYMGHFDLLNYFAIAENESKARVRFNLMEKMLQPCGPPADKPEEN
T1 sequence (O75533 454-1304): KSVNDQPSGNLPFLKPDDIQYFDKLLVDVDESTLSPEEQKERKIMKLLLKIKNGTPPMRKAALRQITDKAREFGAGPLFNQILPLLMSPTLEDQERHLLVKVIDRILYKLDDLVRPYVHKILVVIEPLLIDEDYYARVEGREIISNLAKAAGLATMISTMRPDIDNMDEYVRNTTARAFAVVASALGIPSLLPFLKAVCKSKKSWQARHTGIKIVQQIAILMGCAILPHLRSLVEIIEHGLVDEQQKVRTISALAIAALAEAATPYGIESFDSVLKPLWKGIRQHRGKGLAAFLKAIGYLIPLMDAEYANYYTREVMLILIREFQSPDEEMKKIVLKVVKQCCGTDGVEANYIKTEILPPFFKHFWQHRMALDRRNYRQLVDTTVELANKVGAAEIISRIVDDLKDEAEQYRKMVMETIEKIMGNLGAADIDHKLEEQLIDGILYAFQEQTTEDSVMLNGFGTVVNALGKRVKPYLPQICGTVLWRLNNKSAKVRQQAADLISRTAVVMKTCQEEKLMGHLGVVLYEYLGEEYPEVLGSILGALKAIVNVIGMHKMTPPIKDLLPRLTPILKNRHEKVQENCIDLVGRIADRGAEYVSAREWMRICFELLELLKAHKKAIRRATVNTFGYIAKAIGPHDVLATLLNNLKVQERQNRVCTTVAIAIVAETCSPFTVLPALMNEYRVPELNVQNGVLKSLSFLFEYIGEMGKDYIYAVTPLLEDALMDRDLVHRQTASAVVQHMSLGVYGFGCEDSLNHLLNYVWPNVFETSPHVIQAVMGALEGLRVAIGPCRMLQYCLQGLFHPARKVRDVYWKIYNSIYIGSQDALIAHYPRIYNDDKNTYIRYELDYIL
T1 sequence (Q7RTV0 whole entry Y36C, the tested form may be a part): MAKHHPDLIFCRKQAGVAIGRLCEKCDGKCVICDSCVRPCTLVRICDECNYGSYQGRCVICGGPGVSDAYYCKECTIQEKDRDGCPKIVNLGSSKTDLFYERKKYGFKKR

CCC(O)C(C)C1OC1CC(C)(O)C=CC=C(C)C1OC(=O)CC(O)CCC(C)(O)C(OC(=O)N2CCN(C3CCCCCC3)CC2)C=CC1C (stereo not shown) [Compound E7107]
binding to PHF5A^Y36C mutant complex [1]: no binding was detected; also recorded: not able to bind | GI50 (HCT116-PHF5A^WT): 2.3 nM | IC50 [2]: 9.1 nM | resistance conferred by SF3B1^R1074H and PHF5A^Y36C [3]: > 500 fold
